According to US7803801B2, “Aminopyridine compounds having Syk inhibitory activity” (Japan Tobacco, Inc., priority 2005, dated 2010):
Where a name gives a salt, the structure may show the parent alone. Read-outs that look alike come from different tables or passages of the source.

Assays:
[1] = system: cultured human mast cells; assay: Degranulation inhibition test using cultured human mast cells (IgE cross-linking, β-Hexosaminidase release); format: cell-based; details: Mast cell, cultured human mast cells, read-out: human degranulation ave. IC50
Summary of the method: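 CD34+ cord-blood cells cultured ≥8 weeks with SCF/IL-6/IL-3; FcεRI primed 5 days with rhIL-4 (1 ng/mL) and hIgE (0.5 μg/mL). Compound (0.1% DMSO) preincubated 10 min at 37 °C, then anti-IgE (final 10 μg/mL) 30 min; released β-hexosaminidase read at 405 nm versus total lysate, IC50 (M).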

[2] = molecular target: GST-Syk Full Protein (human) (Homo sapiens, UniProt P43405); assay: Syk kinase inhibition test (HTRF method); format: biochemical
Summary of the method: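 Human GST-Syk full-length (6.4 nM) phosphorylated biotin-EDPDYEWPSA-NH2 (250 nM) with 100 μM ATP in HEPES pH 7.0/MgCl2 buffer, 2% DMSO, 30 min at room temperature. EDTA stop, then HTRF detection (streptavidin-XL665, Eu anti-phosphotyrosine) after 1 h; 665/620 ratio read.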

[3] = anti-hIgE stimulation, β-Hexosaminidase index, average
[4] = HTRF, 100 μM ATP, 30 min room temperature, average, read-out: sykHTRF ave IC50
[5] = Tables 1-x, compounds A, read-out: sykHTRF ave IC50

| Compound | IC50 [1, 3] [µM] | IC50 [2, 4] [µM] | IC50 ([1]; Tables 1-x, compounds A) [µM] | IC50 [2, 5] [µM] | also measured |
| --- | --- | --- | --- | --- | --- |
| Cc1ccnc(Nc2cccc(-c3ccc(C(=O)NC(C)(C)C(=O)O)s3)n2)c1 [Compound B-100] |  |  |  |  | IC50 ([1]; Tables 2-x, thiophene compounds B): > 1 µM; IC50 ([2]; Tables 2-x, thiophene compounds B, read-out: sykHTRK ave IC50): 0.1 to 1 µM |
| COC(=O)N1CCC(c2ncc(-c3cccc(Nc4cc(C)ccn4)n3)s2)CC1 [Compound A-170] | 0.1 to 1 | 0.1 to 1 |  |  |  |
| COC(=O)CCCCc1ncc(-c2cccc(Nc3cc(C)ccn3)n2)s1 [Compound A-68] | > 1 | 0.1 to 1 |  |  |  |
| COC(=O)CCNCc1ncc(-c2cccc(Nc3cc(C)ccn3)n2)s1 [Compound A-163] | > 1 | 0.1 to 1 |  |  |  |
| CC(=O)N[C@@H](C)c1ncc(-c2cccc(Nc3cc(OCc4ccccc4)ccn3)n2)s1 [Compound A-80] | 0.1 to 1 | 0.1 to 1 |  |  |  |
| Cc1ccnc(Nc2cccc(-c3cnc(N4CCC(c5noc(=O)[nH]5)CC4)s3)n2)c1 [Compound A-450, 3-(1-{5-[6-(4-methylpyridin-2-ylamino)pyridin-2-yl]thiazol-2-yl}piperidin-4-yl)-4H-[1,2,4]oxadiazole-5-one] |  |  | > 1 | < 0.1 |  |

Now from value to compound, other results behind:

| IC50 [1, 3] [µM] | IC50 [2, 4] [µM] | IC50 ([1]; Tables 1-x, compounds A) [µM] | IC50 [2, 5] [µM] | Compound | also measured |
| --- | --- | --- | --- | --- | --- |
|  |  | 0.1 to 1 | < 0.1 | CC(=O)c1ccnc(Nc2cccc(-c3cnc(N4CC[C@@H](O)C4)s3)n2)c1 [Compound A-549, 1-(2-{6-[2-((R)-3-hydroxypyrrolidin-1-yl)thiazol-5-yl]pyridin-2-ylamino}pyridin-4-yl)ethanone] |  |
|  |  | > 1 | < 0.1 | Cc1ccnc(Nc2cccc(-c3cnc(N4CCC(OCC(=O)O)CC4)s3)n2)c1 [Compound A-594, (1-{5-[6-(4-methylpyridin-2-ylamino)pyridin-2-yl]thiazol-2-yl}piperidin-4-yloxy)acetic acid dihydrochloride] |  |
|  |  | 0.1 to 1 | < 0.1 | Cc1ccnc(Nc2cccc(-c3cnc(N(C)[C@H]4CC[C@@H](C(=O)O)CC4)s3)n2)c1 [Compound A-591, cis-4-(N-methyl-N-{5-[6-(4-methylpyridin-2-ylamino)pyridin-2-yl]thiazol-2-yl}amino)cyclohexanecarboxylic acid] |  |
|  |  | < 0.1 | < 0.1 | Cc1ccnc(Nc2cccc(-c3cnc(N(C)CC(N)=O)s3)n2)c1 [Compound A-556, 2-(N-methyl-N-{5-[6-(4-methylpyridin-2-ylamino)pyridin-2-yl]thiazol-2-yl}amino)acetamide] |  |
